According to ChEMBL document CHEMBL1641428, “Inhibition of the β-carbonic anhydrase from Streptococcus pneumoniae by inorganic anions and small molecules: Toward innovative drug design of antiinfectives?” (Bioorg Med Chem, 2011):

Key:
Carbonic anhydrase 1 = Carbonic anhydrase 1 (Homo sapiens, UniProt P00915); test: Inhibition of human carbonic anhydrase 1 after 15 mins by stopped flow CO2 hydration assay
Carbonic anhydrase 2 = Carbonic anhydrase 2 (Homo sapiens, UniProt P00918); test: Inhibition of human carbonic anhydrase 2 after 15 mins by stopped flow CO2 hydration assay

Chain of Carbonic anhydrase 1 (P00915 whole entry): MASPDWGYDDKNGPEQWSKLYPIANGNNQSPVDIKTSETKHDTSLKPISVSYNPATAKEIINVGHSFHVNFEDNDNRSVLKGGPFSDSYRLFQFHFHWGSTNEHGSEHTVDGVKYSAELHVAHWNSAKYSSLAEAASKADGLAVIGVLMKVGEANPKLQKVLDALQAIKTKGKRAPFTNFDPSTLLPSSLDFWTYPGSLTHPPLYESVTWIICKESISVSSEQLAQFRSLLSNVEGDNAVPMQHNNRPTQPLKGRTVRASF

For `O=S(=O)(O)ONOS(=O)(=O)O` [SODIUM IMINODISULFATE], the Ki (Carbonic anhydrase 1) was 310 nM and the Ki (Carbonic anhydrase 2) was 760 nM.
